Experimental data taken from the supplement of paper PMC4862054.

Key:
[1] = system: MFM-223; conditions: 72 h
Summary of the method: (§1)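 Breast cancer cell lines in 20 µl suspension were seeded onto 384-well plates pre-loaded with compound dissolved in 5 µl medium, then incubated 72 h. For viability, 2.5 µl CellTiter-Blue was added for 2 h at 37 °C and fluorescence read at 560/590 nm. Each plate was normalised to vehicle and a positive kill control and checked by Z'-factor. EC50 comes from the fitted percent-inhibition dose-response curve, censored at the highest concentration; rows with zero drug sensitivity score were dropped.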

[2] = system: BT-474; conditions: 72 h
Summary of the method: as §1

[3] = system: MDA-MB-468; conditions: 72 h
Summary of the method: as §1

[4] = system: HCC1143; conditions: 72 h
Summary of the method: as §1

[5] = system: HCC1599; conditions: 72 h
Summary of the method: as §1

[6] = system: MDA-MB-231; conditions: 72 h
Summary of the method: as §1

[7] = system: Hs578T; conditions: 72 h
Summary of the method: as §1

[8] = system: BT-474; conditions: 72 h; remark: listed apart in the source
Summary of the method: (§2)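 Seeding of breast cancer cell lines (20 µl suspension) was done into 384-well plates pre-loaded with compound at 5 concentrations, 10-fold apart, covering a compound-specific 10,000-fold range. The plates were incubated for 72 h, read for CellTox Green fluorescence (485/520 nm), and then read for CellTiter-Glo luminescence after 10 min at room temperature. Every plate was normalised to 0.1 % DMSO and a positive kill control. Curve fitting gave the EC50, censored at the top concentration.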

[9] = system: SK-BR-3; conditions: 72 h
Summary of the method: as §2

[10] = system: CAL-51; conditions: 72 h
Summary of the method: as §2

[11] = system: HCC1143; conditions: 72 h; remark: listed apart in the source
Summary of the method: as §2

[12] = system: CAL-148; conditions: 72 h
Summary of the method: as §2

[13] = system: HDQ-P1; conditions: 72 h
Summary of the method: as §2

[14] = system: HCC1599; conditions: 72 h; remark: listed apart in the source
Summary of the method: as §2

[15] = system: MDA-MB-436; conditions: 72 h
Summary of the method: as §2

[16] = system: MDA-MB-453; conditions: 72 h
Summary of the method: as §2

[17] = system: DU-4475; conditions: 72 h
Summary of the method: as §2

[18] = system: CAL-85-1; conditions: 72 h
Summary of the method: as §2

[19] = system: MDA-MB-231; conditions: 72 h; remark: listed apart in the source
Summary of the method: as §2

[20] = system: Hs578T; conditions: 72 h; remark: listed apart in the source
Summary of the method: as §2

[21] = system: BT-549; conditions: 72 h
Summary of the method: as §2

[22] = system: MCF-10A; conditions: 72 h
Summary of the method: as §2

[23] = system: HDQ-P1; conditions: 72 h; remark: listed apart in the source
Summary of the method: as §1

[24] = system: MDA-MB-453; conditions: 72 h; remark: listed apart in the source
Summary of the method: as §1

[25] = system: DU-4475; conditions: 72 h; remark: listed apart in the source
Summary of the method: as §1

[26] = system: CAL-85-1; conditions: 72 h; remark: listed apart in the source
Summary of the method: as §1

[27] = system: MFM-223; assay: normalised viability (% of control), CellTiter-Blue; higher = more viable cells (about 100 = DMSO control); conditions: incubation time: 72 h
Summary of the method: (§3)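 Normalised viability is given for a single listed concentration of the series. In 384-well plates, breast cancer cell lines were incubated 72 h with compound, then read with CellTiter-Blue (2 h, 37 °C) at 560/590 nm. Per-plate scaling set vehicle to 100 and a positive kill control to 0, with Z'-factor quality control.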

[28] = system: SK-BR-3; assay: as above; conditions: incubation time: 72 h
Summary of the method: as §3

[29] = system: MDA-MB-436; assay: as above; conditions: incubation time: 72 h
Summary of the method: as §3

[30] = system: Hs578T; assay: as above; conditions: incubation time: 72 h
Summary of the method: as §3

[31] = system: BT-549; assay: as above; conditions: incubation time: 72 h
Summary of the method: as §3

[32] = system: MDA-MB-468; conditions: 72 h; remark: listed apart in the source
Procedure: (§4)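 Drug sensitivity and resistance testing (DSRT) of breast cancer cell lines in 384-well plates, 5 concentrations in 10-fold dilutions over a compound-specific 10,000-fold range. After 72 h, cytotoxicity was read by CellTox Green fluorescence and viability by CellTiter-Glo luminescence (multiplexed), normalised to DMSO and benzethonium chloride controls. EC50 is the inflection point of the fitted dose-response curve (bottom asymptote free, so it can be relative for partial curves) and is censored at the highest tested concentration. Rows with DSS 0 (no meaningful response) were excluded.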

[33] = system: CAL-51; conditions: 72 h; remark: listed apart in the source
Procedure: as §4

[34] = system: CAL-148; conditions: 72 h; remark: listed apart in the source
Procedure: as §4

[35] = system: CAL-85-1; conditions: 72 h; remark: listed apart in the source
Procedure: as §4

[36] = system: HCC1937; conditions: 72 h
Summary of the method: as §2

[37] = system: MFM-223; conditions: 72 h; remark: listed apart in the source
Summary of the method: as §2

[38] = system: CAL-120; conditions: 72 h
Procedure: as §4

EC50, CellTiter-Blue viability [2] [µM]	EC50, CellTiter-Blue viability [3] [µM]	EC50, CellTiter-Blue viability [4] [µM]	EC50, CellTiter-Blue viability [5] [µM]	EC50, CellTiter-Blue viability [6] [µM]	EC50, CellTiter-Glo [8] [µM]	EC50, CellTiter-Glo [14] [µM]	EC50, CellTiter-Glo [19] [µM]	Compound	EC50, CellTiter-Blue viability [1] [µM]	EC50, CellTiter-Blue viability [7] [µM]	EC50, CellTiter-Glo [10] [µM]	EC50, CellTiter-Glo [13] [µM]	EC50, CellTiter-Glo [17] [µM]	EC50, CellTiter-Glo [18] [µM]	EC50, CellTiter-Glo [20] [µM]	normalised viability ([27]; 100 nM) [%]	normalised viability ([28]; 100 nM) [%]	normalised viability ([29]; 100 nM) [%]	normalised viability ([30]; 100 nM) [%]	normalised viability ([31]; 100 nM) [%]	further results
0.522	0.15	0.132	0.0835	0.187	0.167	0.597	0.311	COc1cccc2c1C(=O)c1c(O)c3c(c(O)c1C2=O)C[C@@](O)(C(=O)CO)C[C@@H]3O[C@H]1C[C@H](N)[C@H](O)[C@H](C)O1 [Doxorubicin]	0.558	0.147	0.0415	0.465	0.177	0.547	0.463	–	–	–	–	–	EC50, CellTiter-Glo [9]: 0.263 µM; EC50, CellTiter-Glo [11]: 0.942 µM; EC50, CellTiter-Glo [12]: 0.187 µM; EC50, CellTiter-Glo [15]: 0.449 µM; EC50, CellTiter-Glo [16]: 0.607 µM; EC50, CellTiter-Glo [21]: 0.154 µM; EC50, CellTiter-Glo [22]: 0.856 µM; EC50, CellTiter-Blue viability [23]: 0.259 µM; EC50, CellTiter-Blue viability [24]: 0.409 µM; EC50, CellTiter-Blue viability [25]: 0.0718 µM; EC50, CellTiter-Blue viability [26]: 0.279 µM; normalised viability ([27]; 10 nM): 89.4%; normalised viability ([28]; 10 nM): 75.6%; normalised viability ([29]; 10 nM): 92.4%; normalised viability ([30]; 10 nM): 99.5%; normalised viability ([31]; 10 nM): 98.9%; EC50, CellTox Green [32]: 0.1 µM; EC50, CellTox Green [33]: 0.068 µM; EC50, CellTox Green [34]: 0.0924 µM; EC50, CellTox Green [35]: 0.44 µM
–	–	–	–	–	–	–	–	Cc1ccc(F)c(NC(=O)Nc2ccc(-c3cccc4[nH]nc(N)c34)cc2)c1 [Linifanib]	–	–	0.411	–	–	–	–	–	–	–	–	–	normalised viability ([27]; 10 nM): 102%; normalised viability ([28]; 10 nM): 119%; normalised viability ([29]; 10 nM): 124%; normalised viability ([30]; 10 nM): 82.9%; normalised viability ([31]; 10 nM): 94.8%
1.16	0.0762	0.0687	2.05	0.502	–	–	–	COc1cc(Nc2ncc3c(n2)-c2ccc(Cl)cc2C(c2c(F)cccc2OC)=NC3)ccc1C(=O)O [MLN8237]	0.388	0.0418	–	–	–	–	–	77.7	53	91.5	51.3	62.2	EC50, CellTiter-Blue viability [23]: 0.051 µM; EC50, CellTiter-Blue viability [24]: 0.0111 µM; EC50, CellTiter-Blue viability [25]: 0.0575 µM; EC50, CellTiter-Blue viability [26]: 0.0296 µM
–	0.387	–	–	–	3.92	3.82	0.906	S=c1[nH]cnc2nc[nH]c12 [Mercaptopurine]	–	–	–	0.569	1.82	4.41	0.985	93.6	94	121	113	106	EC50, CellTiter-Glo [36]: 0.833 µM
–	–	–	–	–	–	–	–	Clc1ccc(C(c2ccccc2Cl)C(Cl)Cl)cc1 (centres undefined) [Mitotane]	–	–	–	–	–	–	–	93.9	112	105	99.8	98.5	–
–	–	–	–	–	–	–	–	CCN1CCN(c2ccc(Nc3cc(N(C)C(=O)Nc4c(Cl)c(OC)cc(OC)c4Cl)ncn3)cc2)CC1 [NVP-BGJ398]	–	–	–	–	–	–	> 1	–	–	–	–	–	EC50, CellTiter-Glo [37]: 0.0505 µM; EC50, CellTox Green [38]: > 1 µM
